Source: PubChem BioAssay AID1418 (Emory University Molecular Libraries Screening Center, 2008)
Values joined by “and” are separate entries in the source; they are usually repeats but may differ in a detail not shown here. Identical values can stand only once. Active and inactive are the calls of the source. No rule for the calls is given here.

The compounds below were run against Induced myeloid leukemia cell differentiation protein Mcl-1 (Homo sapiens) (UniProt Q07820) (assay: blockers of Bid binding to Mcl-1 – biochemical, TR-FRET, dose response (AID 1418)). Details: Mcl-1/Bid peptide binding, TR-FRET (europium/Dy647), 2 hr.
Sequence of Induced myeloid leukemia cell differentiation protein Mcl-1 (Homo sapiens) (Q07820 whole entry, looked up): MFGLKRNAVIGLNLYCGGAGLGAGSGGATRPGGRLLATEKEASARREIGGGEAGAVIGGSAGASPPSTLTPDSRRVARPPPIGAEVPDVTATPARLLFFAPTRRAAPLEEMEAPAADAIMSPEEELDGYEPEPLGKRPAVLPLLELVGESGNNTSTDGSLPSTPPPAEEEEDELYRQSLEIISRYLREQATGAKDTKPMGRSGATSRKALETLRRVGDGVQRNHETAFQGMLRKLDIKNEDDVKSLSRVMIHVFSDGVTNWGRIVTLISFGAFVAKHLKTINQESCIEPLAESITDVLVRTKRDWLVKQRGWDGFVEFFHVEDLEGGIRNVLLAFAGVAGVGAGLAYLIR

Structure (SMILES)	IC50
CCN(CC)c1ccc(NC(=O)Cn2c(C(C)NC(=O)c3ccc(C)cc3)nc3ccccc32)cc1 (centres undefined)	0.9 µM
C=C(C)Cn1c(Sc2nnc(C)s2)nc2c1c(=O)[nH]c(=O)n2C	> 54 µM (inactive)
N#Cc1c2nc3ccccc3nc2n2cc(NC(=O)c3ccc(F)cc3)ccc12	0.71 µM
O=c1c2ccccc2nc(/C=C/c2cccnc2)n1CCc1ccccc1	0.63 µM
O=C(/C=C/N1CCOCC1)c1cc2ccccc2o1	> 54 µM (inactive)
CCN(CC)S(=O)(=O)c1ccc(NC(=O)Nc2cccc(C(F)(F)F)c2)cc1	> 54 µM (inactive)
O=C(O)c1ccc2ncsc2c1	0.52 µM
Cc1ccc(-c2cc(-c3ccc4c(c3)OCO4)c(C#N)c(N)n2)o1	16.4 µM
Cc1ccc2oc(C(F)(F)C(F)F)cc(=O)c2c1	inactive
CSc1ccccc1NC(=O)CNCCCN1CCOCC1	> 54 µM (inactive)
CCn1c(C)cc(/C=C2/NC(=O)N(CC(=O)Nc3cccc(C)c3)C2=O)c1C	3.19 µM
C[C@@H](C(=O)Nc1nc2ccc(F)cc2s1)N1C(=O)C2CC=CCC2C1=O (some centres undefined)	> 54 µM (inactive)
CCN(CC)c1ccc(/C=N/Nc2cccc(C)c2)c(O)c1	> 54 µM (inactive)
Cc1c(NC(=S)NC(NC(=O)C(C)C)C(Cl)(Cl)Cl)c(=O)n(-c2ccccc2)n1C (centres undefined)	> 54 µM (inactive)
CCOC(=O)c1cccc(NC(=O)CCNS(=O)(=O)c2ccc3c(c2)CCN3C(=O)CC)c1	> 54 µM (inactive)
O=C(O)c1cccc(N/N=C/C2=C(Cl)c3cc(Cl)ccc3SC2)c1	8.44 µM
COc1ccc(-c2cc3nc4ccccc4n3c(N)c2C#N)cc1	2.76 µM
COc1ccccc1NC(=O)c1sc2ncn(Cc3ccc(C)cc3)c(=O)c2c1C	7.75 µM
CN(C)S(=O)(=O)c1cccc(N=c2scc(-c3ccc4c(c3)NC(=O)CO4)n2CC2CCCO2)c1 (centres undefined)	> 54 µM (inactive)
O=C(O)[C@@H](c1ccccc1)N1Cc2ccccc2C1=O	0.54 µM

Structure (SMILES)	IC50
CC(C)(C)c1nc2ccccc2c2nnc(SCC(=O)Nc3nc4ccccc4s3)n12	2.03 µM
Cc1cccc(C(=O)N2CCc3cc(-c4nc(NC(=O)Cn5nnc6ccccc6c5=O)sc4C)ccc32)c1	> 54 µM (inactive)
COc1cc(OC)cc(C(=O)N(CCCN2C(=O)c3cccc4cccc(c34)C2=O)c2cccc(OC)c2)c1	> 54 µM (inactive)
O=C(N/N=C/c1ccc(F)cc1)c1cc(-c2ccco2)nc2ccccc12	3.3 µM
O=C(Nc1ccc2sccc2c1)c1ccc(Cl)s1	> 54 µM (inactive)
Cc1cc2c(C(C)C)c(O)c(O)c(C=O)c2c(O)c1-c1c(C)cc2c(C(C)C)c(O)c(O)c(C=O)c2c1O	1.17 µM and 0.86 µM
c1ccc2c(c1)nnn2-c1ncnc2sc3c(c12)CCCC3	> 54 µM (inactive)
COc1cccc2cc(C(=O)Oc3ccc(NC(C)=O)cc3)c(=O)oc12	> 54 µM (inactive)
N#Cc1ccc(CO/N=C/c2ccccc2)cc1	> 54 µM (inactive)
C#CCOCCOCCOCCNc1nc(N2CCN(C(=O)[C@H](CCCCN)n3cc(C(N)CC(C)C)nn3)CC2)nc(N2CCN(C(=O)[C@H](CCC(=O)O)n3cc(C(N)[C@H](C)CC)nn3)CC2)n1 (some centres undefined)	22.2 µM
O=C(Cn1nc(C(F)(F)F)c2c1CCCC2)NCc1ccco1	> 54 µM (inactive)
Cc1nc(NC(=O)c2ccco2)sc1-c1csc(Nc2ccc(Cl)cc2Cl)n1	0.77 µM
COC(=O)CN1C(C)=Nc2ccc(Br)cc2C1c1ccccc1 (centres undefined)	> 54 µM (inactive)
O=C1C(=Cc2cccn2-c2ccc(O)cc2)C(=O)c2ccccc21	2.53 µM
O=C(Nc1ccccc1)NC1CCS(=O)(=O)C1 (centres undefined)	> 54 µM (inactive)
CC1CN(C(=O)c2cccc(C(=O)N3CC(C)OC(C)C3)c2)CC(C)O1 (centres undefined)	> 54 µM (inactive)
O=C(NCCc1ccccc1)C1CCN(S(=O)(=O)c2ccc(-c3nn[nH]n3)cc2)CC1	> 54 µM (inactive)
CC1CCN(S(=O)(=O)c2cccc(C(=O)Nc3ccccn3)c2)CC1	> 54 µM (inactive)
CCOc1ccc(/C=C/C(=O)Nc2ccc(N3CCOCC3)cc2)cc1	> 54 µM (inactive)
